Like-named read-outs stand apart in the source and are kept apart here.
How the values were obtained:
Experiment in all cases: KiNativ assay
Type in all cases: binding
Details in all cases: H929 live cell
[1] = molecular target: SMG1 (Homo sapiens (Human), UniProt Q96Q15)
Method: (§1) Biochemical IC50s of the compounds of the present disclosure against various kinases were measured in a KiNativ assay. Compounds were screened in duplicate at 10 μM in H929 live cell. IC50 was measured via Mass spectroscopy (MS).

[2] = molecular target: PKN1 (Homo sapiens (Human), UniProt Q16512)
Method: as §1

[3] = molecular target: RSK1 domain1 (Homo sapiens (Human), UniProt Q15418)
Method: as §1

[4] = molecular target: STLK6 (Homo sapiens (Human), UniProt Q9C0K7)
STLK6, sequence (Q9C0K7 whole entry): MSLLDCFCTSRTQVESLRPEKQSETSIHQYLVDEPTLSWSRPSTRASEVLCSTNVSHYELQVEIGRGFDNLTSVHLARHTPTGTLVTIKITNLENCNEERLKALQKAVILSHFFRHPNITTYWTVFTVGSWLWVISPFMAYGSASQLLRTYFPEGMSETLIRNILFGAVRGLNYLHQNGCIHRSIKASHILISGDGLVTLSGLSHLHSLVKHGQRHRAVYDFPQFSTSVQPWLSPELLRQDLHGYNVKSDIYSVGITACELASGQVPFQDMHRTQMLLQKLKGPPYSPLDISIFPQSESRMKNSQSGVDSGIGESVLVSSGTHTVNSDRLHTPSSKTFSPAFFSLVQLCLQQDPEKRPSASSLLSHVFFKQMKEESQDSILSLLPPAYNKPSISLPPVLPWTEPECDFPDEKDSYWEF
Method: as §1

[5] = molecular target: CK1g2 (Homo sapiens (Human), UniProt P78368)
CK1g2, sequence (P78368 whole entry): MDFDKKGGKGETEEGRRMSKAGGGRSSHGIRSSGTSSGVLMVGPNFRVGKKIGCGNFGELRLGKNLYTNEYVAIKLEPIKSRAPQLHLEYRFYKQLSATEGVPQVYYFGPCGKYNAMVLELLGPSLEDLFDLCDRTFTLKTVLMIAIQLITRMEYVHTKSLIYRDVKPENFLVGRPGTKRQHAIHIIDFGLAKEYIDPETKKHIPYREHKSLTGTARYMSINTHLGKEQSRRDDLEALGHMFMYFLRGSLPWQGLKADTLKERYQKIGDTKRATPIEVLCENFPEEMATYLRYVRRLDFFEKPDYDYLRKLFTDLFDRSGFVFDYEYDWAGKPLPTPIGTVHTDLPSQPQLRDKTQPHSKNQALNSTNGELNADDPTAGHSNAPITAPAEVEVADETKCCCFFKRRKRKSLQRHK
Method: as §1

[6] = molecular target: p38a (Homo sapiens (Human), UniProt Q16539)
In short: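 In duplicate, compounds at 10 μM were screened against kinases in H929 live cells using KiNativ, with MS as the detection method for IC50.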

[7] = test system: MAPKAPK2, MAPKAPK3
Method: as §1

[8] = molecular target: CK1a (Homo sapiens (Human), UniProt P48729)
CK1a, sequence (P48729 whole entry): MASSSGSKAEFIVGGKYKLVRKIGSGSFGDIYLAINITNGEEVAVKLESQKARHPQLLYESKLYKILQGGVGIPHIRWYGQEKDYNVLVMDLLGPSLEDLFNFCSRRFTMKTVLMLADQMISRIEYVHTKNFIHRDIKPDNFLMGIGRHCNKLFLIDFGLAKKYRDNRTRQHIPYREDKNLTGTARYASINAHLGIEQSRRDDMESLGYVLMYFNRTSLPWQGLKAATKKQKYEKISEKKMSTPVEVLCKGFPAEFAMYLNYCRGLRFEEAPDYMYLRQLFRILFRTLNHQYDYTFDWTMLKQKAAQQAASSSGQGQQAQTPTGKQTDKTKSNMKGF
Method: as §1

[9] = molecular target: RSK2 domain2 (Homo sapiens (Human), UniProt P51812)
Method: as §1

[10] = test system: KSR1, KSR2
Method: as §1

[11] = molecular target: Erk2 (Homo sapiens (Human), UniProt P28482)
Erk2, sequence (P28482 whole entry): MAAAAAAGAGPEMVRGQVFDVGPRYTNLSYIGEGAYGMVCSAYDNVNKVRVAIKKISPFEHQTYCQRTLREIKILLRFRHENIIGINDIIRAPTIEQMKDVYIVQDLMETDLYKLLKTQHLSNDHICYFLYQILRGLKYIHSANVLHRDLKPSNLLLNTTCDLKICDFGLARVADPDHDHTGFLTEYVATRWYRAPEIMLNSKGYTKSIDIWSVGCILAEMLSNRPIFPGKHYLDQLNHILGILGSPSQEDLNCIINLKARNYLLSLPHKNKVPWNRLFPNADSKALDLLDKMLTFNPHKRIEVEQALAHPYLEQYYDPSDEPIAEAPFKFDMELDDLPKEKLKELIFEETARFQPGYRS
Method: as §1

[12] = test system: AMPKa1, AMPKa2
Method: as §1

[13] = molecular target: LOK (Homo sapiens (Human), UniProt O94804)
Method: as §1

[14] = molecular target: MAP2K3 (Homo sapiens (Human), UniProt P46734)
Method: as §1

[15] = molecular target: TYK2 domain2 (Homo sapiens (Human), UniProt P29597)
Method: as §1

[16] = molecular target: PKD2 (Homo sapiens (Human), UniProt Q9BZL6)
Method: as §1

[17] = test system: PI4KA, PI4KAP2
Method: as §1

[18] = molecular target: CSK (Homo sapiens (Human), UniProt P41240)
CSK, sequence (P41240 whole entry): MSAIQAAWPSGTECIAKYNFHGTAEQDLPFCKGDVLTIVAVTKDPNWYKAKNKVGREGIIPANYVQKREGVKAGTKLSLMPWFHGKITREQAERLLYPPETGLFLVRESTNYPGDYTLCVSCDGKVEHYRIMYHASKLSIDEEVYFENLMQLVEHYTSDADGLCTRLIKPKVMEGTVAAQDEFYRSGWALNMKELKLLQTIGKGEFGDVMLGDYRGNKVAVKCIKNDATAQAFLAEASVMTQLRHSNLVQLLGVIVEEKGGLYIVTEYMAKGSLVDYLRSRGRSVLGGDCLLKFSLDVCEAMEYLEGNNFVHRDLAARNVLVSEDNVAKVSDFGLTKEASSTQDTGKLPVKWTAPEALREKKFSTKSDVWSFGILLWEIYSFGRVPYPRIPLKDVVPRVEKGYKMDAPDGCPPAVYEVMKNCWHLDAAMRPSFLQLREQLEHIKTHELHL
Method: as §1

[19] = molecular target: AKT1 (Homo sapiens (Human), UniProt P31749)
Method: as §1

[20] = molecular target: JAK3 domain2 (Homo sapiens (Human), UniProt P52333)
Method: as §1

[21] = molecular target: TBK1 (Homo sapiens (Human), UniProt Q9UHD2)
TBK1, sequence (Q9UHD2 whole entry): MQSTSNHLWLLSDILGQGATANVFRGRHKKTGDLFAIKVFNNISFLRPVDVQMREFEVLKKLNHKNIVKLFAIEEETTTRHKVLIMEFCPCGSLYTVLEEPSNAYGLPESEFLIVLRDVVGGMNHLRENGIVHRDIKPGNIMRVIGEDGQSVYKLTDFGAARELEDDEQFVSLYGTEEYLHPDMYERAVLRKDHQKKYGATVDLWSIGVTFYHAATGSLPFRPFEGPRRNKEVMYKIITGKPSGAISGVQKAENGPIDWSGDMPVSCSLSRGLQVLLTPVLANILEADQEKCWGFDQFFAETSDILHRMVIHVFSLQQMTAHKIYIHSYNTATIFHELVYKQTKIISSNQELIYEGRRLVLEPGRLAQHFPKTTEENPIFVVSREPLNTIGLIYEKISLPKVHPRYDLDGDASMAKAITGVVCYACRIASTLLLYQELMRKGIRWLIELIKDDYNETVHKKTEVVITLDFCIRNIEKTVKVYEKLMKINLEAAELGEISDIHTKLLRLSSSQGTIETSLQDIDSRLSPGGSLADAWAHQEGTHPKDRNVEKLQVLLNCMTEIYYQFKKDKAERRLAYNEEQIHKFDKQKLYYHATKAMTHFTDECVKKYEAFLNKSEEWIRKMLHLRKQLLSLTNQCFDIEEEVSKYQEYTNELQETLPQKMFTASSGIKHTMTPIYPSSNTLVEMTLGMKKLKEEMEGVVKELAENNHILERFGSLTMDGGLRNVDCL
Method: as §1

[22] = molecular target: PIP5K3 (Homo sapiens (Human), UniProt Q9Y2I7)
Method: as §1

[23] = molecular target: MAP3K4 (Homo sapiens (Human), UniProt Q9Y6R4)
MAP3K4, sequence (Q9Y6R4 whole entry): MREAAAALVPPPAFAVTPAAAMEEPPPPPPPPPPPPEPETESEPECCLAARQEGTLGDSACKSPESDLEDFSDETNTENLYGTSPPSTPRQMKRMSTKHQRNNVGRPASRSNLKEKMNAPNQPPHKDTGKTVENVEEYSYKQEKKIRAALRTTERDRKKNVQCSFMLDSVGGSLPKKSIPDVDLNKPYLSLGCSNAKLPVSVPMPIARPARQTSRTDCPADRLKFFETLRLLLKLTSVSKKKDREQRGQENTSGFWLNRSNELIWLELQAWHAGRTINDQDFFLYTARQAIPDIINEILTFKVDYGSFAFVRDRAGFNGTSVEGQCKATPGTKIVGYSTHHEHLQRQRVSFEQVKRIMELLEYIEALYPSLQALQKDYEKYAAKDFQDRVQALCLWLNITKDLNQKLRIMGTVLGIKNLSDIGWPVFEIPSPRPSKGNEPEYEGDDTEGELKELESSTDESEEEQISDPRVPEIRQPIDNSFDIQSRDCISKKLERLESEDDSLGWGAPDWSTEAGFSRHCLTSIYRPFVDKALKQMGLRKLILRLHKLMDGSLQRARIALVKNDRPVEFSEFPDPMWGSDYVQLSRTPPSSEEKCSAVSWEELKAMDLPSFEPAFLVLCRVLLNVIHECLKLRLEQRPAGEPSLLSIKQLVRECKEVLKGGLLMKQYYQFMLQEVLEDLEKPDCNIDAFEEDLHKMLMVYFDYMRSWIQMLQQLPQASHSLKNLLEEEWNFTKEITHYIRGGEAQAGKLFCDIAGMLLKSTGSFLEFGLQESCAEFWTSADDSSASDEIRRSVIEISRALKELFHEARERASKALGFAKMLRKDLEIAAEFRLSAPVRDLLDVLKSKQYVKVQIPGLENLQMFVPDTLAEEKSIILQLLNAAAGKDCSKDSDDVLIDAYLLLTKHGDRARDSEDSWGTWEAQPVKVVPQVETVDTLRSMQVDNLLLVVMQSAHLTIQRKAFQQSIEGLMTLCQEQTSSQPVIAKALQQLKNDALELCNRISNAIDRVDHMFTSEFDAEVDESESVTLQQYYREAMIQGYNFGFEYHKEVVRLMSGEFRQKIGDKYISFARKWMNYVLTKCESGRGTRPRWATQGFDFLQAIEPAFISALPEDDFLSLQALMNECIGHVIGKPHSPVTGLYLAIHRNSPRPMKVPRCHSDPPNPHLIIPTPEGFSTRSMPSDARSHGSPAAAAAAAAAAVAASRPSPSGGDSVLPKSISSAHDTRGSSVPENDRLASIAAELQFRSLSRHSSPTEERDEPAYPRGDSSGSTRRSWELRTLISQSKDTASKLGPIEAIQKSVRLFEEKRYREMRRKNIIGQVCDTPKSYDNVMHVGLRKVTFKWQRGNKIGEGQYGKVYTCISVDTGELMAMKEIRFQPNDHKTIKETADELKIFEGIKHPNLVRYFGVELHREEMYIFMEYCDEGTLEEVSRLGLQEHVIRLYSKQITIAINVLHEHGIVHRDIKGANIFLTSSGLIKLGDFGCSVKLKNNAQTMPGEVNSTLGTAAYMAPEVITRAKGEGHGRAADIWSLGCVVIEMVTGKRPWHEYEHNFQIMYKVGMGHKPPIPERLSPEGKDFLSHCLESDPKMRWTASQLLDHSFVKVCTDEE
Method: as §1

[24] = molecular target: PLK1 (Homo sapiens (Human), UniProt P53350)
PLK1, sequence (P53350 whole entry): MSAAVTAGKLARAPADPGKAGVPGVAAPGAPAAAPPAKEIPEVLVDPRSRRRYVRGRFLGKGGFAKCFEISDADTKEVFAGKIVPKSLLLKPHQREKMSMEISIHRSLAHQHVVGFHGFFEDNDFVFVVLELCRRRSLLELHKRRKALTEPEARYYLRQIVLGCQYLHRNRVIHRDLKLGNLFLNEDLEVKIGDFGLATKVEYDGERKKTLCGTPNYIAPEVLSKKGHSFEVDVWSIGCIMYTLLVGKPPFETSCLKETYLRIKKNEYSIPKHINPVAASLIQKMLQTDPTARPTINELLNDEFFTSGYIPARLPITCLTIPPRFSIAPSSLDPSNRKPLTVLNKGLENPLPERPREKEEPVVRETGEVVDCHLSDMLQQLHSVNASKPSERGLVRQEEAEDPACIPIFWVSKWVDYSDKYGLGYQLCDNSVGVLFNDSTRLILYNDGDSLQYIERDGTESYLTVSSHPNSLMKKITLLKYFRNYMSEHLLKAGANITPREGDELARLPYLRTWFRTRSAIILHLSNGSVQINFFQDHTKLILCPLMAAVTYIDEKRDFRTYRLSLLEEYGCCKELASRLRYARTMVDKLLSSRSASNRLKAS
Method: as §1

[25] = range class, read-out: % inhibition

CN(C1CC1)S(=O)(=O)c1ccc(-c2cnc(N)c(-c3ccc4c(c3)CCNC4=O)c2)c(F)c1 [Compound I-28, 4-(6-amino-5-(1-oxo-1,2,3,4-tetrahydroisoquinolin-6-yl)pyridin-3-yl)-N-cyclopropyl-3-fluoro-N-methylbenzenesulfonamide]
inhibition at 10 µM ([1]; read-out: % inhibition (range)): 35 to 50%
inhibition at 10 µM ([1]; read-out: inhibition (10 μM)): 42.9%
inhibition at 10 µM ([2]; read-out: % inhibition (range)): 35 to 50%
inhibition at 10 µM ([2]; read-out: inhibition (10 μM)): 40.5%
inhibition at 10 µM ([3]; read-out: % inhibition (range)): 0%
inhibition at 10 µM ([3]; read-out: inhibition (10 μM)): 15.6%
inhibition at 10 µM ([4]; read-out: % inhibition (range)): 0%
inhibition at 10 µM ([4]; read-out: inhibition (10 μM)): 1.4%
inhibition at 10 µM ([5]; read-out: % inhibition (range)): > 90%
inhibition at 10 µM ([5]; read-out: inhibition (10 μM)): > 90%
inhibition at 10 µM ([6]; read-out: % inhibition (range)): 0%
% inhibition (range) ([7]; 10 μM): 0.0%
inhibition (10 μM) [7]: −5.0%
inhibition at 10 µM ([8]; read-out: % inhibition (range)): 35 to 50%
inhibition at 10 µM ([8]; read-out: inhibition (10 μM)): 37.8%
inhibition at 10 µM ([9]; read-out: % inhibition (range)): 0%
inhibition at 10 µM ([9]; read-out: inhibition (10 μM)): -20%
% inhibition (range) ([10]; 10 μM): 0.0%
inhibition (10 μM) [10]: −14.5%
inhibition at 10 µM ([11]; read-out: % inhibition (range)): 0%
inhibition at 10 µM ([11]; read-out: inhibition (10 μM)): 13.9%
% inhibition (range) ([12]; 10 μM): 0.0%
inhibition (10 μM) [12]: −1.6%
inhibition at 10 µM ([13]; read-out: % inhibition (range)): 75 to 90%
inhibition at 10 µM ([13]; read-out: inhibition (10 μM)): 85.5%
inhibition at 10 µM ([14]; read-out: % inhibition (range)): 0%
inhibition at 10 µM ([14]; read-out: inhibition (10 μM)): 1.4%
inhibition at 10 µM ([15]; read-out: % inhibition (range)): 0%
inhibition at 10 µM ([15]; read-out: inhibition (10 μM)): 3.8%
inhibition at 10 µM ([16]; read-out: % inhibition (range)): 35 to 50%
inhibition at 10 µM ([16]; read-out: inhibition (10 μM)): 38.9%
% inhibition (range) ([17]; 10 μM): 0.0%
inhibition (10 μM) [17]: −13.2%
inhibition at 10 µM ([18]; read-out: % inhibition (range)): 0%
inhibition at 10 µM ([18]; read-out: inhibition (10 μM)): 3.7%
inhibition at 10 µM ([19]; read-out: % inhibition (range)): 0%
inhibition at 10 µM ([19]; read-out: inhibition (10 μM)): 11.1%
inhibition at 10 µM ([20]; read-out: % inhibition (range)): 0%
inhibition at 10 µM ([20]; read-out: inhibition (10 μM)): 15.2%
inhibition at 10 µM ([21]; read-out: % inhibition (range)): 0%
inhibition at 10 µM ([21]; read-out: inhibition (10 μM)): 3.4%
inhibition at 10 µM ([22]; read-out: % inhibition (range)): 75 to 90%
inhibition at 10 µM ([22]; read-out: inhibition (10 μM)): 83.4%
inhibition at 10 µM ([23]; read-out: % inhibition (range)): 0%
inhibition at 10 µM ([23]; read-out: inhibition (10 μM)): -8.8%
inhibition at 10 µM ([24]; read-out: % inhibition (range)): 0%
inhibition at 10 µM ([24]; read-out: inhibition (10 μM)): 15.2%

COc1cc(NS(=O)(=O)C2CC2)ccc1-c1cnc(N)c(-c2ccc3c(c2)CCNC3=O)c1 [Compound I-50, N-(4-(6-amino-5-(1-oxo-1,2,3,4-tetrahydroisoquinolin-6-yl)pyridin-3-yl)-3-methoxyphenyl) cyclopropanesulfonamide]
inhibition at 10 µM [1, 25]: 0%
inhibition at 10 µM ([1]; read-out: inhibition (10 μM)): 30.8%
inhibition at 10 µM [2, 25]: 0%
inhibition at 10 µM ([2]; read-out: inhibition (10 μM)): -39.9%
inhibition at 10 µM [3, 25]: 0%
inhibition at 10 µM ([3]; read-out: inhibition (10 μM)): -4.6%
inhibition at 10 µM [4, 25]: 0%
inhibition at 10 µM ([4]; read-out: inhibition (10 μM)): -15%
inhibition at 10 µM [5, 25]: 75 to 90%
inhibition at 10 µM ([5]; read-out: inhibition (10 μM)): 79.9%
inhibition at 10 µM [6, 25]: 0%
% inhibition ([7]; 10 μM, range class): 0.0%
inhibition (10 μM) [7]: −34.3%
inhibition at 10 µM [8, 25]: 0%
inhibition at 10 µM ([8]; read-out: inhibition (10 μM)): -20.9%
inhibition at 10 µM [9, 25]: 0%
inhibition at 10 µM ([9]; read-out: inhibition (10 μM)): -1.4%
% inhibition ([10]; 10 μM, range class): 0.0%
inhibition (10 μM) [10]: −18.4%
inhibition at 10 µM [11, 25]: 0%
inhibition at 10 µM ([11]; read-out: inhibition (10 μM)): 34.5%
% inhibition ([12]; 10 μM, range class): 0.0%
inhibition (10 μM) [12]: −8.2%
inhibition at 10 µM [13, 25]: > 90%
inhibition at 10 µM ([13]; read-out: inhibition (10 μM)): 91.6%
inhibition at 10 µM [14, 25]: 0%
inhibition at 10 µM ([14]; read-out: inhibition (10 μM)): -5.7%
inhibition at 10 µM [15, 25]: 0%
inhibition at 10 µM ([15]; read-out: inhibition (10 μM)): -21%
inhibition at 10 µM [16, 25]: 50 to 75%
inhibition at 10 µM ([16]; read-out: inhibition (10 μM)): 51.5%
% inhibition ([17]; 10 μM, range class): 0.0%
inhibition (10 μM) [17]: 24.7%
inhibition at 10 µM [18, 25]: 0%
inhibition at 10 µM ([18]; read-out: inhibition (10 μM)): -4.3%
inhibition at 10 µM [19, 25]: 0%
inhibition at 10 µM ([19]; read-out: inhibition (10 μM)): 2.1%
inhibition at 10 µM [20, 25]: 0%
inhibition at 10 µM ([20]; read-out: inhibition (10 μM)): -20.2%
inhibition at 10 µM [21, 25]: 0%
inhibition at 10 µM ([21]; read-out: inhibition (10 μM)): 31.4%
inhibition at 10 µM [22, 25]: 75 to 90%
inhibition at 10 µM ([22]; read-out: inhibition (10 μM)): 79.7%
inhibition at 10 µM [23, 25]: 0%
inhibition at 10 µM ([23]; read-out: inhibition (10 μM)): 9.5%
inhibition at 10 µM [24, 25]: 0%
inhibition at 10 µM ([24]; read-out: inhibition (10 μM)): -11.1%

Reference: patent US10710978B2, “STK4 inhibitors for treatment of hematologic malignancies” (Dana-Farber Cancer Institute, Inc., priority 2015, dated 2020)
